In ChEMBL document CHEMBL4251586, “Design, synthesis and evaluation of an anthraquinone derivative conjugated to myelin basic protein immunodominant (MBP85-99) epitope: Towards selective immunosuppression” (Eur J Med Chem, 2018):

What was measured:
[1] = Drug internalization in HEK293 cells at 10 uM after 30 to 60 mins by inverted fluorescence microscopy; type: ADME, cell-based; settings: human, hek293, 10 µM
[2] = tested on: HEK293; experiment: Cytotoxicity against HEK293 cells after 48 hrs by MTT assay; type: cell-based, Homo sapiens
[3] = tested on: Jurkat; experiment: Induction of apoptosis in human Jurkat T cells assessed as downregulation of Bcl2 expression at 10 uM after 48 hrs by Western blot analysis; type: functional

Row | SMILES | Drug uptake [1] | IC50 ([2]; Homo sapiens, HEK293, 48 h) | Activity ([2]; human, hek293, 48 h) | Activity [3]
1 | NCCCCNc1ccc(O)c2c1C(=O)c1ccccc1C2=O.O=C(O)C(F)(F)F | Active | 9.4 µM | Dose-dependent effect | –
2 | O=C1c2c(O)ccc(O)c2C(=O)c2c(NCCNCCO)ccc(NCCNCCO)c21 [MITOXANTRONE] | – | – | – | 50%
3 | O=C(CS)NCCCCNc1ccc(O)c2c1C(=O)c1ccccc1C2=O | – | – | – | 40%
